Patent US20120142028A1, “[…] […] ANTI-CANCER RESPONSE TO EPIDERMAL GROWTH FACTOR RECEPTOR KINASE INHIBITORS” (OSI Pharmaceuticals, LLC, priority 2009, published 2012)
Several values for one entry are separate records, joined by “and”; a condition that tells them apart may be missing. Equal entries are not always repeated. Entries after “also recorded” stand apart in the source; their conditions may differ.

System: patients who had had progression after standard chemotherapy for non-small-cell lung cancer
Test: NCIC CTG BR.21 Phase 3 trial of TARCEVA vs placebo; survival and PFS by tumor E-cadherin/vimentin IHC status
Assay type: in vivo, human
Settings: for Hazard Ratio (H/L) (95% CI) / Median Survival / Median PFS: Erlotinib arm; for Hazard Ratio (95% CI): Erlotinib vs. Placebo; for Median PFS: progression free survival
Description: The NCIC CTG. BR.21 study was a Phase 3 trial of TARCEVA® involving patients who had had progression after standard chemotherapy for non-small-cell lung cancer (i.e. 2nd and 3rd line NSCLC; Shepherd F A, et al. N Engl. J. Med 2005; 353:123-132.). Patients were randomly assigned in a 2:1 ratio to receive 150 mg of TARCEVA® (erlotinib HCl) daily or placebo. The primary end point was overall survival. Progression free survival and response were secondary end points. Separate written consent was obtained for optional tissue banking and correlative studies.
Because the BR21 trial is one of the few TARCEVA® clinical trials that includes a large number of patients and an untreated placebo group, it is optimally designed to evaluate the predictive and prognostic potential of biomarkers. As such, the potential of vimentin and E-cadherin protein expression to serve as a predictive biomarker for overall survival and […] was assessed using remaining tumor samples from the BR21 study. IHC analysis of tumor tissue samples received from NCIC was used to determine E-Cadherin and vimentin protein expression. Sensitivity analyses were performed to determine optimal cut points for E-Cadherin and vimentin staining for classification of E-Cadherin and vimentin as “High” or “Low” for use as prognostic and/or predictive markers for survival and progression-free survival. Further analyses were performed to evaluate possible correlations of biomarker status with clinical outcomes of survival, progression-free survival, response and disease control.
Stained slides were scored by an experienced pathologist. Slides were first evaluated for quality of tissue and quality of staining Acceptable slides were then evaluated, with the pathologist generating an ‘H-1-score’ based on a subjective interpretation of the staining intensity of the chromagen labeled antibody. Four intensity levels were used in scoring the stained sections: 0 for no staining, +1 for weak or minimal staining, +2 for moderate staining, and +3 for strong staining. The relative percentage of total target cells expressing an intensity level is recorded as data.
Treatment groups as randomized (ITT population) were analyzed using all patients with evaluable tissue. Disease progression as assessed by the investigator was used for PFS (Progression Free Survival) analysis. Potential predictive benefit of E-Cadherin or vimentin expression was assessed by comparing trends in the hazard ratios. No treatments by biomarker interaction tests were performed. Three Scoring Methods were used for E-Cadherin and Vimentin: • 1. % Any Staining of tumor cells • 2. % of tumor cell Staining of Intensity +2 or +3 • 3. Composite Score Example: A sample read as 5% unstained, 35% staining of intensity +1, 45% staining of intensity +2, and 15% staining of intensity +3, would be scored as follows: • 95% any staining • 60% staining of intensity +2 or +3 • 0(5)+1(35)+2(45)+3(15)=Composite Score of 170 Overall survival is defined as the time from the study treatment start date to the date of death. If the patient receives the study treatment but the patient is still alive or a death date is unavailable, overall survival is calculated as the difference between the study treatment start date and the last date the patient was known to be alive. […] Progression free survival (PFS) is defined as the time from the study treatment start date to the documentation date of disease progression or the death date. As with overall survival, if no progression/death date is available, the PFS is calculated as the time from the study treatment start date to the last documented tumor assessment date, and is noted to be “censored”.
Table 6 illustrates the numbers of patients in each treatment arm who were E-Cadherin high vs. low, and vimentin high vs. low for the subset of patients for whom E-Cadherin and vimentin results were available (N=95). P-values are determined from univariate Kaplan-Meier analyses. […]

[1] = overall survival, E-Cadherin High
[2] = overall survival, E-Cadherin Low
[3] = overall survival, E-Cadherin/Vimentin High/High
[4] = overall survival, E-Cadherin/Vimentin High/Low
[5] = overall survival, E-Cadherin/Vimentin Low/High
[6] = overall survival, E-Cadherin/Vimentin Low/Low
[7] = overall survival, Patients with Known E-Cadherin Results
[8] = overall survival, Patients with Known Vimentin Results
[9] = overall survival, Vimentin High

## C#Cc1cccc(Nc2ncnc3cc(OCCOC)c(OCCOC)cc23)c1 [Erlotinib, [6,7-bis(2-methoxyethoxy)-4-quinazolin-4-yl]-(3-ethynylphenyl)amine]
E-Cadherin high subset (FIG. 3)
  Kaplan-Meier overall survival, Erlotinib arm compared to Placebo arm: more favorable
E-Cadherin high subset (FIG. 4)
  Kaplan-Meier progression free survival, Erlotinib arm compared to Placebo arm: more favorable
E-Cadherin low subset (FIG. 3)
  Kaplan-Meier overall survival, Erlotinib arm compared to Placebo arm: switched in direction but smaller in magnitude
E-Cadherin low subset (FIG. 4)
  Kaplan-Meier progression free survival, Erlotinib arm compared to Placebo arm: switched in direction but smaller in magnitude
Erlotinib arm (FIG. 3)
  Kaplan-Meier overall survival, E-Cadherin high subset compared to E-Cadherin low subset: more favorable
Erlotinib arm (FIG. 4)
  Kaplan-Meier progression free survival, E-Cadherin high subset compared to E-Cadherin low subset: more favorable
Erlotinib arm (FIG. 5)
  Kaplan-Meier overall survival, vimentin high subset compared to vimentin low subset: more favorable; also recorded: longer
Erlotinib arm (FIG. 6)
  Kaplan-Meier progression free survival, vimentin high subset compared to vimentin low subset: more favorable; also recorded: longer
PFS, E-Cadherin High vs. E-Cadherin Low (cut-point 40% staining of intensity +2 or +3)
  Hazard Ratio (H/L) (95% CI): 0.571 and 0.57
PFS, Vimentin High vs. Vimentin Low
  Hazard Ratio (H/L) (95% CI): 0.43
PFS, All Patients
  Hazard Ratio (95% CI): 0.64
PFS, E-Cadherin High
  Hazard Ratio (95% CI): 0.52
PFS, E-Cadherin Low
  Hazard Ratio (95% CI): 1.18
PFS, E-Cadherin/Vimentin High/High
  Hazard Ratio (95% CI): 0.235
PFS, E-Cadherin/Vimentin High/Low
  Hazard Ratio (95% CI): 0.73
PFS, E-Cadherin/Vimentin Low/High
  Hazard Ratio (95% CI): 0.24
PFS, E-Cadherin/Vimentin Low/Low
  Hazard Ratio (95% CI): 2.75
PFS, Patients with Known E-Cadherin Results
  Hazard Ratio (95% CI): 0.72
PFS, Patients with Known Vimentin Results
  Hazard Ratio (95% CI): 0.72
PFS, Vimentin High
  Hazard Ratio (95% CI): 0.28
PFS, Vimentin Low
  Hazard Ratio (95% CI): 1.11
Overall survival, All Patients
  Median Survival: 6.67 Months
  Hazard Ratio (95% CI): 0.76
[1]
  Median Survival: 11.3 Months
  Hazard Ratio (95% CI): 0.47
Overall survival, E-Cadherin High vs. E-Cadherin Low (cut-point 40% staining of intensity +2 or +3)
  Hazard Ratio (H/L) (95% CI): 0.682 and 0.68
[2]
  Median Survival: 4.86 Months
  Hazard Ratio (95% CI): 1.12
[3]
  Median Survival: 10.38 Months
  Hazard Ratio (95% CI): 0.31
[4]
  Median Survival: 12.06 Months
  Hazard Ratio (95% CI): 0.57
[5]
  Median Survival: 10.7 Months
  Hazard Ratio (95% CI): 0.26
[6]
  Median Survival: 4.81 Months
  Hazard Ratio (95% CI): 2.44
[7]
  Median Survival: 8.44 Months
  Hazard Ratio (95% CI): 0.69
[8]
  Median Survival: 8.44 Months
  Hazard Ratio (95% CI): 0.69
[9]
  Median Survival: 10.55 Months
  Hazard Ratio (95% CI): 0.26
Overall survival, Vimentin High vs. Vimentin Low
  Hazard Ratio (H/L) (95% CI): 0.65
Overall survival, Vimentin Low
  Median Survival: 6.11 Months
  Hazard Ratio (95% CI): 0.99
All Patients
  Median PFS: 2.23 Months
E-Cadherin High
  Median PFS: 3.68 Months
E-Cadherin Low
  Median PFS: 1.97 Months
E-Cadherin/Vimentin High/High
  Median PFS: 8.02 Months
E-Cadherin/Vimentin High/Low
  Median PFS: 2.66 Months
E-Cadherin/Vimentin Low/High
  Median PFS: 3.61 Months
E-Cadherin/Vimentin Low/Low
  Median PFS: 1.69 Months
Patients with Known E-Cadherin Results
  Median PFS: 2.38 Months
Patients with Known Vimentin Results
  Median PFS: 2.38 Months
Vimentin High
  Median PFS: 5.39 Months
Vimentin Low
  Median PFS: 2.18 Months
Subset of treated patients with high E-cadherin expression
  survival when treated with TARCEVA: longer survival
Subset of treated patients with high vimentin expression
  survival when treated with TARCEVA: significantly longer survival
Vimentin high subset (FIG. 5)
  Kaplan-Meier overall survival, Erlotinib arm compared to Placebo arm: more favorable
Vimentin high subset (FIG. 6)
  Kaplan-Meier progression free survival, Erlotinib arm compared to Placebo arm: more favorable
Vimentin low subset (FIG. 5)
  Kaplan-Meier overall survival, Erlotinib arm compared to Placebo arm: no difference
Vimentin low subset (FIG. 6)
  Kaplan-Meier progression free survival, Erlotinib arm compared to Placebo arm: no difference
